# Data as given in patent US10730840B2, “Substituted tetrahydroisoquinoline ethylbenzamide anti-cancer agents” (Florida A&M University, priority 2017, dated 2020).
# Entries after “also recorded” stand apart in the source; their conditions may differ. Where a name gives a salt, the structure may show the parent alone. Read-outs that look alike come from different tables or passages of the source.
# Key:
# [1] = system: Ishikawa (endometrial) cancer cell line; assay: CellTiter-Glo antiproliferative activity, Ishikawa cell line; type: cell-based, human; settings: 72 h exposure; for IC50: Homo sapiens, Ishikawa
# From the text: Numerous substituted THIQs were systematically synthesized employing molecular design and structure activity relationship studies (Suresh et al., (2014) Lett. Drug Design & Discov. 11: 428-436; Gangapuram et al., (2014) J. Cancer Sci. Ther. 6: 161-169). The compounds' cytotoxic effects on MCF-7 (estrogen receptor positive breast cancer) cell lines, MDA-MB-231 (estrogen receptor negative breast cancer) cell lines and Ishikawa cell lines using CellTiter-Glo (CTG) luminescent cell viability essay were studied. The tests were done on different concentrations of the compounds ranging from 0.01 to 100,000 nM on 5000 MCF-7 cells/well, on 5000 MDA-MB-231 cells/well and on 5000 Ishikawa cells/well. Drug exposed cells were incubated at 37° C. for three days followed by CTG assay. Then IC50 values were generated from Graph Pad Prism 4. […]
# (§1) The antiproliferative activities of substituted tetrahydroisoquinolines 2a-2m, 3a-3l and 4a-4f were evaluated according to the procedure reported previously (Crouch et al., (1993) J. Immunol. Methods 160: 81-88).
# (§2) Human MCF-7 and MDA-MB-231 breast cancer cell lines were purchased from the NCI. The human Ishikawa endometrial cancer cell line was purchased from Sigma Aldrich. All three cell lines were cultured in phenol red-free RPMI-1640 (Hyclone) (500 mL) supplemented with L-glutamine-dipeptide (Hyclone) (5 mL), and 10% fetal bovine serum (Atlanta Biologicals) (50 mL).
# (§3) The cell lines were cultured and treated with compounds under study including the standard TAM ranging from 0.01 nM to 100,000 nM concentration in the presence of 10 nM estradiol using the previous reported method (Suresh et al., (2014) Lett. Drug Des. Discov. 11: 428-436).
# (§4) The amount of ATP is determined using a system based on luciferase and D-luciferin resulting in light generation.
# [2] = system: MCF-7 (ER positive breast cancer cell line); assay: CellTiter-Glo antiproliferative activity, MCF-7 cell line; type: cell-based, human; settings: for IC50: Homo sapiens, MCF7; for antiproliferative activity against MCF-7 cell line in words: based on IC50 value
# From the text: (§5) Numerous substituted THIQs were systematically synthesized employing molecular design and structure activity relationship studies (Suresh et al., (2014) Lett. Drug Design & Discov. 11: 428-436; Gangapuram et al., (2014) J. Cancer Sci. Ther. 6: 161-169). The compounds' cytotoxic effects on MCF-7 (estrogen receptor positive breast cancer) cell lines, MDA-MB-231 (estrogen receptor negative breast cancer) cell lines and Ishikawa cell lines using CellTiter-Glo (CTG) luminescent cell viability essay were studied. The tests were done on different concentrations of the compounds ranging from 0.01 to 100,000 nM on 5000 MCF-7 cells/well, on 5000 MDA-MB-231 cells/well and on 5000 Ishikawa cells/well. Drug exposed cells were incubated at 37° C. for three days followed by CTG assay. Then IC50 values were generated from Graph Pad Prism 4.
# (§6) Chemistry: Several substituted tetrahydroisoquinolines 2d-2m, 3h, 3k, 3l, and 4a-4f were prepared according to three different procedures as shown in Schemes 1, 2 and 3 (FIGS. 2-4). […] The aminating agent 10 was prepared using a reported procedure (Tamura et al., (1972) J. Org. Chem. 40: 4133-4135). The amino salts of ring substituted 2-aminoisoquinolinium mesitylenesulfonates of general structure 11 used in the present study were prepared by the reaction of substituted isoquinolines and the aminating agent 10 as previously reported (Gangapuram et al., (2014) J. Cancer Sci. Ther. 6: 161-169). […] The aminating agent 13 was prepared using a reported procedure (Legault & Charette (2003) J. Org. Chem. 68: 7119-7122). The amino salts of ring substituted 2-aminoisoquinolinium compounds of general structure 14 were obtained with the reaction of the substituted isoquinolines and the aminating agent 13 in CH3CN heated at 50° C. for 24 hours. Without further purification, the salts were used to prepare the N-ylides by reaction with substituted acyl/sulfonyl chlorides. […] N-Oxidation of commercially available ring substituted THIQs followed by the reduction of the NO group using standard zinc/acetic acid led to the synthesis of N-amino THIQs.
# as §1, §2, §3, §4
# [3] = system: MDA-MB-231 (ER negative breast carcinoma cell line); assay: CellTiter-Glo antiproliferative activity, MDA-MB-231 cell line; type: cell-based, human; settings: 72 h exposure; for IC50: Homo sapiens, MDA-MB-231
# From the text: as §5, §6, §1, §2, §3
# [4] = system: MCF-7, MDA-MB-231, and Ishikawa cell lines; assay: Antiproliferative activity, summary statements over the three cell lines; type: cell-based, human; settings: MCF-7, MDA-MB-231 and Ishikawa cell lines together
# From the text: as §5, §6, §1, §2, §3
# [5] = Table 1, in the presence of 10 nM estradiol
# [6] = Table 1, 72 h exposure, in the presence of 10 nM estradiol
# [7] = Table 1, in the presence of 10 nM estradiol, read-out: IC50 Ishikawa
# [8] = Table 1, 72 h exposure, in the presence of 10 nM estradiol, read-out: IC50 MCF-7
# [9] = in the presence of 10 nM estradiol
# [10] = in the presence of 10 nM estradiol, read-out: IC50 against Ishikawa cell line
# [11] = Table 2, estradiol added, read-out: IC50 Ishikawa
# [12] = Table 2, 72 h exposure, estradiol added, read-out: IC50 MCF-7
SMILES,"IC50 Ishikawa [1, 5]","IC50 MCF-7 [2, 6]","IC50 MDA-MB-231 [3, 5]","IC50 [1, 7]","IC50 [2, 8]","IC50 [3, 5]",melting point,other results
"CCc1ccccc1C(=O)NN1CCc2ccc(O)cc2C1 [Compound 2g, 2-Ethyl-N-(7-hydroxy-3,4-dihydroisoquinolin-2(1H)-yl) benzamide]",>29.64 µg/mL,>29.64 µg/mL,>29.64 µg/mL,–,–,–,–,–
"CCc1ccc(C(=O)NN2CCc3cccc(N)c3C2)cc1 [Compound 2k, N-(8-amino-3,4-dihydroisoquinolin-2(1H)-yl)-4-ethylbenzamide]",–,–,–,0.6 µg/mL,2.23 µg/mL,16.8 µg/mL,223.5 to 224.8 °C,–
"CCc1ccc(C(=O)NN2CCc3cccc(O)c3C2)cc1 [Compound 2i, 4-Ethyl-N-(8-hydroxy-3,4-dihydroisoquinolin-2(1H)-yl) benzamide]",–,–,–,–,–,–,–,"IC50 against Ishikawa cell line [1, 9]: 0.09 µg/mL; IC50 against MCF-7 cell line ([2]; 72 h exposure, in the presence of 10 nM estradiol): 0.61 µg/mL; selectivity towards ER(+) MCF-7 compared to ER(−) MDA-MB-231 cell lines ([2]; MCF-7 versus MDA-MB-231 IC50): significant selectivity; also recorded: reasonable selectivity; antiproliferative activity against MCF-7 cell line in words [2]: very active; IC50 against MDA-MB-231 cell line [3, 9]: 1.36 µg/mL; antiproliferative activity in words [4]: active"
"CCc1ccc(C(=O)NN2CCc3ccc(OS(N)(=O)=O)cc3C2)cc1 [Redda-GM-4-171, 2-(4-Ethylbenzamido)-1,2,3,4-tetrahydroisoquinolin-7-yl-sulfamate]",–,–,–,–,–,–,–,"IC50 [1, 11]: 0.12 µg/mL; IC50 [2, 12]: 2.14 µg/mL; IC50 ([3]; Table 2, estradiol added): 2.53 µg/mL"
"COc1ccc(C(=O)NN2CCc3ccc(O)cc3C2)cc1 [Compound 2d, N-(7-hydroxy-3,4-dihydroisoquinolin-2(1H)-yl)-4-methoxybenzamide]",–,–,–,0.99 µg/mL,> 29.8 µg/mL,25.2 µg/mL,192.5 to 194.3 °C,–
"COc1ccccc1C(=O)NN1CCc2ccc(O)cc2C1 [Compound 2f, N-(7-hydroxy-3,4-dihydroisoquinolin-2(1H)-yl)-2-methoxybenzamide]",–,–,–,> 29.8 µg/mL,> 29.8 µg/mL,> 29.8 µg/mL,197.3 to 199.4 °C,–
"CCc1ccc(C(=O)NN2CCc3ccc(Cl)cc3C2)cc1 [Redda-EVK-I-132, N-(7-Chloro-3,4-dihydroisoquinolin-2(1H)-yl)-4-ethylbenzamide]",–,–,–,–,–,–,–,"IC50 [1, 11]: 0.318 µg/mL; IC50 [2, 12]: 0.678 µg/mL; IC50 ([3]; Table 2, estradiol added): 0.826 µg/mL"
"CCc1ccc(C(=O)NN2CCc3ccccc3C2c2ccco2)cc1 (stereo not drawn) [Redda-EVK-I-135, 4-Ethyl-N-(1-(furan-2-yl)-3,4-dihydroisoquinolin-2(1H)-yl)benzamide]",–,–,–,–,–,–,–,"IC50 [1, 11]: 1.71 µg/mL; IC50 [2, 12]: 2.39 µg/mL; IC50 ([3]; Table 2, estradiol added): 3.88 µg/mL"
"COc1cccc(C(=O)NN2CCc3ccc(O)cc3C2)c1 [Compound 2e, N-(7-hydroxy-3,4-dihydroisoquinolin-2(1H)-yl)-3-methoxybenzamide]",–,–,–,0.31 µg/mL,1.86 µg/mL,1.71 µg/mL,190.5 to 192.3 °C,–
"O=C(c1ccc(OCCN2CCCCC2)cc1)c1c(-c2ccc(O)cc2)sc2cc(O)ccc12 [Raloxifene-Hydrochloride, reference compound]",–,–,–,10.5 µg/mL,0.98 µg/mL,11.2 µg/mL,–,–
"CCc1ccc(C(=O)NN2CCc3cc(O)ccc3C2)cc1 [Compound 2h, 4-Ethyl-N-(6-hydroxy-3,4-dihydroisoquinolin-2(1H)-yl) benzamide]",22.38 µg/mL,>29.64 µg/mL,>29.64 µg/mL,–,–,–,–,–
"Nc1ccc(C(=O)NN2CCc3ccc(Br)cc3C2)cc1 [Compound 2l, 4-Amino-N-(7-bromo-3,4-dihydroisoquinolin-2(1H)-yl) benzamide]",1.09 µg/mL,2.80 µg/mL,9.86 µg/mL,–,–,–,–,–

# More lines, main results first:
"IC50 Ishikawa [1, 5]","IC50 MCF-7 [2, 6]","IC50 MDA-MB-231 [3, 5]","IC50 [1, 7]","IC50 [2, 8]","IC50 [3, 5]",melting point,SMILES,other results
10.96 µg/mL,7.92 µg/mL,10.25 µg/mL,–,–,–,–,"CC(C)(C)c1ccc(C(=O)NN2CCc3c(O)cccc3C2)cc1 [Compound 3b, 4-(tert-butyl)-N-(5-Hydroxy-3,4-dihydroisoquinolin-2(1H)-yl) benzamide]",–
–,–,–,0.98 µg/mL,2.49 µg/mL,3.74 µg/mL,205 to 206 °C,"CCc1ccc(C(=O)NN2CCc3cc(Cl)ccc3C2)cc1 [Compound 4e, N-(6-Chloro-3,4-dihydroisoquinolin-2(1H)-yl)-4-ethylbenzamide]","IC50 [1, 10]: < 7.87 µg/mL"
>33.84 µg/mL,>33.84 µg/mL,>33.84 µg/mL,–,–,–,–,"COc1cccc2c1CCN(NC(=O)c1ccc(C(C)(C)C)cc1)C2 [Compound 3a, 4-(tert-butyl)-N-(5-Methoxy-3,4-dihydroisoquinolin-2(1H)-yl) benzamide]",–
9.93 µg/mL,18.61 µg/mL,15.61 µg/mL,–,–,–,–,"CCc1ccc(C(=O)NN2CCc3c(O)cccc3C2)cc1 [Compound 3f, 4-Ethyl-N-(5-hydroxy-3,4-dihydroisoquinolin-2(1H)-yl) benzamide]",–
–,–,–,> 34.1 µg/mL,> 34.1 µg/mL,> 34.1 µg/mL,224 to 225 °C,"CCc1ccc(C(=O)NN2CCc3cc(OC)c(OC)cc3C2)cc1 [Compound 4b, N-(6,7-Dimethoxy-3,4-dihydroisoquinolin-2(1H)-yl)-4-ethylbenzamide]",–
>41.45 µg/mL,>41.45 µg/mL,>41.45 µg/mL,–,–,–,–,"CC(C)(C)c1ccc(C(=O)NN2CCc3c(cccc3OCc3ccccc3)C2)cc1 [Compound 3e, N-(5-(Benzyloxy)-3,4-dihydroisoquinolin-2(1H)-yl)-4-(tertbutyl) benzamide]",–
–,–,–,> 30.5 µg/mL,26.4 µg/mL,> 30.5 µg/mL,162 to 167 °C,"CCc1ccccc1C(=O)NN1CCc2ccc(C#N)cc2C1 [Compound 4a, N-(7-Cyano-3,4-dihydroisoquinolin-2(1H)-yl)-2-ethylbenzamide]",–
–,–,–,8.64 µg/mL,15.2 µg/mL,16.1 µg/mL,–,"CCc1ccc(C(=O)NN2CCc3cc(C(=O)OC)ccc3C2)cc1 [Compound 3h, methyl-2-(4-ethylbenzamido)-1,2,3,4-tetrahydroisoquinoline-6-carboxylate]",–
–,–,–,> 32.4 µg/mL,> 32.4 µg/mL,> 32.4 µg/mL,251 to 253 °C,"CCc1ccc(C(=O)NN2CCc3cc(C(=O)O)ccc3C2)cc1 [Compound 3k, 2-(4-Ethylbenzamido)-1,2,3,4-tetrahydroisoquinoline-6-carboxylic acid]",–
–,–,–,0.9 µg/mL,1.28 µg/mL,1.76 µg/mL,–,"CCc1ccc(C(=O)NN2CCc3ccc(C#N)cc3C2)cc1 [Compound 4d, N-(7-Cyano-3,4-dihydroisoquinolin-2(1H)-yl)-4-ethylbenzamide]","IC50 [1, 10]: < 7.87 µg/mL; IC50 ([2]; 72 h exposure, in the presence of 10 nM estradiol, read-out: IC50 against MCF-7 cell line): 1.28 µg/mL; antiproliferative activity against MCF-7 cell line in words [2]: moderate activity"
